Activity calls are given as the source filed them. The calls are words filed in the database; no cut-off is given here.
What was measured:
Enterococcus faecium = experiment: Antibacterial activity against Enterococcus faecium 310682 (VRE) assessed as bacterial growth inhibition incubated for 16 hrs in presence of brain heart infusion medium by broth microdilution method; type: functional, organism-based
Acinetobacter baumannii [1] = experiment: Antibacterial activity against Acinetobacter baumannii 2799 assessed as bacterial growth inhibition incubated for 16 hrs in presence of Muller-Hinton medium by broth microdilution method; type: functional, organism-based
LX-2 [2] = experiment: Antifibrotic activity against TGFbeta-1 induced human LX-2 cells assessed as inhibition of TGFB1 mRNA expression at 1 uM incubated for 24 hrs by qRT-PCR analysis relative to control; type: functional; parameters: scale not given: the % may be the effect or the level left
LX-2 [3] = experiment: Antifibrotic activity against TGFbeta-1 induced human LX-2 cells assessed as inhibition of COL1A1 mRNA expression at 5 uM incubated for 24 hrs by qRT-PCR analysis relative to control; type: functional; parameters: scale not given: the % may be the effect or the level left
NIH3T3 [4] = experiment: Antifibrotic activity against TGFbeta-1 induced mouse NIH3T3 cells assessed as decrease in COL1A1 mRNA expression at 5 uM incubated for 24 hrs by qRT-PCR analysis relative to control; type: functional; parameters: scale not given: the % may be the effect or the level left
Escherichia coli [5] = experiment: Antibacterial activity against Escherichia coli ATCC 35218 assessed as bacterial growth inhibition incubated for 16 hrs in presence of Muller-Hinton medium by broth microdilution method; type: functional, organism-based
LX-2 [6] = experiment: Antifibrotic activity against TGFbeta-1 induced human LX-2 cells assessed as inhibition of ACTA2 mRNA expression at 5 uM incubated for 24 hrs by qRT-PCR analysis relative to control; type: functional; parameters: scale not given: the % may be the effect or the level left
Staphylococcus aureus [7] = experiment: Antibacterial activity against Staphylococcus aureus ATCC 33591 assessed as bacterial growth inhibition incubated for 16 hrs in presence of Muller-Hinton medium by broth microdilution method; type: functional, organism-based
Pseudomonas aeruginosa [8] = experiment: Antibacterial activity against Pseudomonas aeruginosa ATCC 27853 assessed as bacterial growth inhibition incubated for 16 hrs in presence of Muller-Hinton medium by broth microdilution method; type: functional, organism-based
Escherichia coli [9] = experiment: Antibacterial activity against Escherichia coli ATCC 25922 assessed as bacterial growth inhibition incubated for 16 hrs in presence of Muller-Hinton medium by broth microdilution method; type: functional, organism-based
LX-2 [10] = experiment: Antifibrotic activity against TGFbeta-1 induced human LX-2 cells assessed as inhibition of ACTA2 mRNA expression at 1 uM incubated for 24 hrs by qRT-PCR analysis relative to control; type: functional; parameters: scale not given: the % may be the effect or the level left
Pseudomonas aeruginosa [11] = experiment: Antibacterial activity against Pseudomonas aeruginosa 2774 assessed as bacterial growth inhibition incubated for 16 hrs in presence of Muller-Hinton medium by broth microdilution method; type: functional, organism-based
LX-2 [12] = experiment: Cytotoxicity against human LX-2 cells assessed as reduction in cell viability at 200 uM incubated for 24 hrs by CCK-8 assay; type: toxicity, cell-based; details: lx-2, 24 h
NIH3T3 [13] = experiment: Antifibrotic activity against TGFbeta-1 induced mouse NIH3T3 cells assessed as decrease in COL1A1 mRNA expression at 1 uM incubated for 24 hrs by qRT-PCR analysis relative to control; type: functional; parameters: scale not given: the % may be the effect or the level left
Staphylococcus aureus [14] = experiment: Antibacterial activity against Staphylococcus aureus ATCC 29213 assessed as bacterial growth inhibition incubated for 16 hrs in presence of Muller-Hinton medium by broth microdilution method; type: functional, organism-based
NIH3T3 [15] = experiment: Antifibrotic activity against TGFbeta-1 induced mouse NIH3T3 cells assessed as decrease in Acta2 mRNA expression at 5 uM incubated for 24 hrs by qRT-PCR analysis relative to control; type: functional; parameters: scale not given: the % may be the effect or the level left
Enterococcus faecalis = experiment: Antibacterial activity against Enterococcus faecalis ATCC 33186 assessed as bacterial growth inhibition incubated for 16 hrs in presence of brain heart infusion medium by broth microdilution method; type: functional, organism-based
Klebsiella pneumoniae [16] = experiment: Antibacterial activity against Klebsiella pneumoniae ATCC 700603 assessed as bacterial growth inhibition incubated for 16 hrs in presence of Muller-Hinton medium by broth microdilution method; type: functional, organism-based
Klebsiella pneumoniae [17] = experiment: Antibacterial activity against Klebsiella pneumoniae ATCC 10031 assessed as bacterial growth inhibition incubated for 16 hrs in presence of Muller-Hinton medium by broth microdilution method; type: functional, organism-based
LX-2 [18] = experiment: Antifibrotic activity against TGFbeta-1 induced human LX-2 cells assessed as inhibition of COL1A1 mRNA expression at 1 uM incubated for 24 hrs by qRT-PCR analysis relative to control; type: functional; parameters: scale not given: the % may be the effect or the level left
NIH3T3 [19] = experiment: Antifibrotic activity against TGFbeta-1 induced mouse NIH3T3 cells assessed as decrease in Acta2 mRNA expression at 1 uM incubated for 24 hrs by qRT-PCR analysis relative to control; type: functional; parameters: scale not given: the % may be the effect or the level left
Acinetobacter baumannii [20] = experiment: Antibacterial activity against Acinetobacter baumannii ATCC 19606 assessed as bacterial growth inhibition incubated for 16 hrs in presence of Muller-Hinton medium by broth microdilution method; type: functional, organism-based
Bacillus subtilis = experiment: Antibacterial activity against Bacillus subtilis CPCC 100029 assessed as bacterial growth inhibition incubated for 16 hrs in presence of Muller-Hinton medium by broth microdilution method; type: functional, organism-based
[21] = biological target: T1, Polyunsaturated fatty acid 5-lipoxygenase (Homo sapiens) (UniProt P09917); experiment: Inhibition of human 5-LO at 2 uM incubated for 15 mins in presence of ATP by measuring fluorescence intensity relative to control
T1 sequence (whole entry): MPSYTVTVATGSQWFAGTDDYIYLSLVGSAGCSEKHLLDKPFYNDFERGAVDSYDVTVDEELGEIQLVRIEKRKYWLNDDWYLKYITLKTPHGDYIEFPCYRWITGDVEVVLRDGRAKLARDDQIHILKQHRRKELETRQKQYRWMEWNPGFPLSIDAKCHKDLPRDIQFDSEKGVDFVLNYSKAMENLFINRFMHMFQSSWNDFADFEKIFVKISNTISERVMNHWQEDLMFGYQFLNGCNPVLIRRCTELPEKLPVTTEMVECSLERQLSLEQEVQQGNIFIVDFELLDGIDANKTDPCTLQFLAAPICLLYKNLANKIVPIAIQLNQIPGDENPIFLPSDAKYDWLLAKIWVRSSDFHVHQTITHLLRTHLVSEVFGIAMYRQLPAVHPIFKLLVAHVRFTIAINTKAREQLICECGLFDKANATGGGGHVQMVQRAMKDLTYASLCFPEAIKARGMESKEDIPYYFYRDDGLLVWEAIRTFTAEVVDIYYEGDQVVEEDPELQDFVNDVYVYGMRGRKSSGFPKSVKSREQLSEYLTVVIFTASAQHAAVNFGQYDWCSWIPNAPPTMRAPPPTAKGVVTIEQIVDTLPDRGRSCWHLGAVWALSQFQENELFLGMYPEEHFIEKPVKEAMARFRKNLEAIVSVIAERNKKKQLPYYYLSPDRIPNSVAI

LX-2 [22] = experiment: Antifibrotic activity against TGFbeta-1 induced human LX-2 cells assessed as inhibition of TGFB1 mRNA expression at 5 uM incubated for 24 hrs by qRT-PCR analysis relative to control; type: functional; parameters: scale not given: the % may be the effect or the level left
LX-2 [23] = experiment: Antifibrotic activity against TGFbeta-1 induced human LX-2 cells assessed as inhibition of COL1A1 mRNA expression incubated for 24 hrs by qRT-PCR analysis; type: functional, cell-based; details: dose 1-5 µM
LX-2 [24] = experiment: Antifibrotic activity against TGFbeta-1 induced human LX-2 cells assessed as inhibition of ACTA2 mRNA expression incubated for 24 hrs by qRT-PCR analysis; type: functional, cell-based; details: dose 1-5 µM
LX-2 [25] = experiment: Antifibrotic activity against TGFbeta-1 induced human LX-2 cells assessed as inhibition of TGFB1 mRNA expression incubated for 24 hrs by qRT-PCR analysis; type: functional, cell-based; details: dose 1-5 µM

| SMILES | Activity (Enterococcus faecium) | Activity (Acinetobacter baumannii [1]) | Activity (LX-2 [2]) [%] | Activity (LX-2 [3]) [%] | Activity (NIH3T3 [4]) [%] | Activity (Escherichia coli [5]) | Activity (LX-2 [6]) [%] | Activity (Staphylococcus aureus [7]) | Activity (Pseudomonas aeruginosa [8]) | Activity (Escherichia coli [9]) | Activity (LX-2 [10]) [%] | Activity (Pseudomonas aeruginosa [11]) | Activity (LX-2 [12]) | Activity (NIH3T3 [13]) [%] | Activity (Staphylococcus aureus [14]) | Activity (NIH3T3 [15]) [%] | Activity (Enterococcus faecalis) | Activity (Klebsiella pneumoniae [16]) | Activity (Klebsiella pneumoniae [17]) | Activity (LX-2 [18]) [%] | further results |
| --- | --- | --- | --- | --- | --- | --- | --- | --- | --- | --- | --- | --- | --- | --- | --- | --- | --- | --- | --- | --- | --- |
| O=C(Cc1ccccc1)OC[C@H](CCCCNC(=O)c1cccc(O)c1O)NC(=O)c1cccnc1 | inactive | inactive | 15 | 29 | 31 | inactive | 68 | inactive | inactive | inactive | 3.1 | inactive | Non-toxic | 7.6 | inactive | 55 | inactive | inactive | inactive | -3.5 | Activity (NIH3T3 [19]): 20%; Activity (Acinetobacter baumannii [20]): inactive; Activity (Bacillus subtilis): inactive; inhibition [21]: 66%; Activity (LX-2 [22]): 40% |
| O=C(Cc1ccc(O)cc1)OC[C@H](CCCCNC(=O)c1cccc(O)c1O)NC(=O)c1cccc(O)c1O | inactive | inactive | 50 | 81 | 68 | inactive | 136 | inactive | inactive | inactive | 61 | inactive | Non-toxic | 46 | inactive | 119 | inactive | inactive | inactive | 29 | Activity (LX-2 [23]): Dose-dependent-effect; Activity (LX-2 [24]): Dose-dependent-effect; Activity (LX-2 [25]): Dose-dependent-effect; Activity (NIH3T3 [19]): 80%; Activity (Acinetobacter baumannii [20]): inactive; Activity (Bacillus subtilis): inactive; inhibition [21]: 77%; Activity (LX-2 [22]): 81% |
| O=C(Cc1ccccc1)OC[C@H](CCCCNC(=O)c1cccc(O)c1O)NC(=O)c1cccc(O)c1O | inactive | inactive | 46 | 87 | 81 | inactive | 139 | inactive | inactive | inactive | 82 | inactive | Non-toxic | 78 | inactive | 124 | inactive | inactive | inactive | 46 | Activity (LX-2 [23]): Dose-dependent-effect; Activity (LX-2 [24]): Dose-dependent-effect; Activity (LX-2 [25]): Dose-dependent-effect; Activity (NIH3T3 [19]): 94%; Activity (Acinetobacter baumannii [20]): inactive; Activity (Bacillus subtilis): inactive; inhibition [21]: 72%; Activity (LX-2 [22]): 69% |
| O=C(NCCCC[C@@H](CO)NC(=O)c1cccc(O)c1O)c1cccc(O)c1O | inactive | inactive | 60 | 82 | 78 | inactive | 136 | inactive | inactive | inactive | 87 | inactive | Non-toxic | 9 | inactive | 108 | inactive | inactive | inactive | 39 | Activity (LX-2 [23]): Dose-dependent-effect; Activity (LX-2 [24]): Dose-dependent-effect; Activity (LX-2 [25]): Dose-dependent-effect; Activity (NIH3T3 [19]): 70%; Activity (Acinetobacter baumannii [20]): inactive; Activity (Bacillus subtilis): inactive; inhibition [21]: 67%; Activity (LX-2 [22]): 74% |
| CC(=O)OC[C@H](CCCCNC(=O)c1cccc(O)c1O)NC(=O)c1cccc(O)c1O | inactive | inactive | 36 | 81 | 70 | inactive | 132 | inactive | inactive | inactive | 62 | inactive | Non-toxic | 60 | inactive | 129 | inactive | inactive | inactive | 35 | Activity (LX-2 [23]): Dose-dependent-effect; Activity (LX-2 [24]): Dose-dependent-effect; Activity (LX-2 [25]): Dose-dependent-effect; Activity (NIH3T3 [19]): 95%; Activity (Acinetobacter baumannii [20]): inactive; Activity (Bacillus subtilis): inactive; inhibition [21]: 78%; Activity (LX-2 [22]): 70% |
| CCC(=O)OC[C@H](CCCCNC(=O)c1cccc(O)c1O)NC(=O)c1cccc(O)c1O | inactive | inactive | 57 | 92 | 81 | inactive | 139 | inactive | inactive | inactive | 105 | inactive | Non-toxic | 35 | inactive | 117 | inactive | inactive | inactive | 50 | Activity (LX-2 [23]): Dose-dependent-effect; Activity (LX-2 [24]): Dose-dependent-effect; Activity (LX-2 [25]): Dose-dependent-effect; Activity (NIH3T3 [19]): 61%; Activity (Acinetobacter baumannii [20]): inactive; Activity (Bacillus subtilis): inactive; inhibition [21]: 75%; Activity (LX-2 [22]): 73% |

— ChEMBL document CHEMBL6078652, “Discovery of Sporachelins by Genome Mining of a Micromonospora Strain” (J Nat Prod, 2024)
